From publication PMC6977461 (Chemical Science, 2019)
Like-named read-outs stand apart in the source and are kept apart here.

Key:
GLP-1R = GLP-1R (Homo sapiens, UniProt P43220); assay: cAMP production functional assay in HEK293 cells transfected with GLP-1R (Method C1); format: cell-based; set-up: host or cells: HEK-293T; settings: for EC50: HEK-293T cells exogenously expressing human GLP-1R, cAMP by HTRF, 10 min at 37 °C, Method C1, mean, n = 3 (2: n = 6), read-out: EC50 (GLP-1R potency); for Potency (%), percentage of potency compared to GLP-1-NH2: from EC50 in HEK293 GLP-1R cAMP assay
GLP-1R, sequence (P43220 24-463): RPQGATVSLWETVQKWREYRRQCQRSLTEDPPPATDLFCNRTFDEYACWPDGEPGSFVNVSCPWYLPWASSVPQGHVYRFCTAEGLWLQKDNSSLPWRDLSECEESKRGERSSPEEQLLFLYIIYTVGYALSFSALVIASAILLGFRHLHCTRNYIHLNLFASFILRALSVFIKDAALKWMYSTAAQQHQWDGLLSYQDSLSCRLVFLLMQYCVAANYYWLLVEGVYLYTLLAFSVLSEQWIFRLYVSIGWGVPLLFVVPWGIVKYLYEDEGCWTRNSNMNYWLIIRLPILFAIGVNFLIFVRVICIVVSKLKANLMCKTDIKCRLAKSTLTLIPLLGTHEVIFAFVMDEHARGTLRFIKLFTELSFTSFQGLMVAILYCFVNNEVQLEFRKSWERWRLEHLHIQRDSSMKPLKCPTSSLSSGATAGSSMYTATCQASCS
Method:  HEK-293T cells (Multispan inc., lot#.DC1267-062017) were suspended in cell culture media
(DMEM 1X + GlutaMAX (Gibco 31966-021)) complemented with FBS 10% (Sigma Aldrich
 βTC6 cells were suspended in HBSS buffer (Invitrogen) complemented with 20 mM HEPES (pH
In vitro pharmacology on HEK-293T cells (EC50: Method C1)
cells (Multispan inc., lot#.DC1267-062017) was determined by measuring their effects on cAMP
production using the HTRF detection method (performed by UREkA SARL). The cells were distributed
in 384-well microplates at a density of 1.0x10^4 cells/well. Stock solutions of the test compounds or the
reference agonist were prepared at a concentration of 1 mM in DMSO. Then, compounds to be tested
were diluted in cell culture media and transferred to the plate containing the cells to reach final assay

mouse GLP-1 receptor = molecular target: T1, mouse GLP-1 receptor (Mus musculus, UniProt O35659); assay: cAMP production in βTC6 cells expressing GLP-1R endogenously (Method C2); format: cell-based; settings: for loss in potency relative to 3 (fold): figures for 6-8 match the βTC6 EC50 values of Table S1; for Potency (%), Table S1: from EC50 in βTC6 cAMP assay, footnote: compare to GLP-1-NH2 (2); for EC50: read-out: EC50 (GLP-1R potency), Table S1
T1 construct: βTC6 cells which express GLP-1R endogenously; host or cells: βTC6 cells
T1 sequence (O35659 22-463): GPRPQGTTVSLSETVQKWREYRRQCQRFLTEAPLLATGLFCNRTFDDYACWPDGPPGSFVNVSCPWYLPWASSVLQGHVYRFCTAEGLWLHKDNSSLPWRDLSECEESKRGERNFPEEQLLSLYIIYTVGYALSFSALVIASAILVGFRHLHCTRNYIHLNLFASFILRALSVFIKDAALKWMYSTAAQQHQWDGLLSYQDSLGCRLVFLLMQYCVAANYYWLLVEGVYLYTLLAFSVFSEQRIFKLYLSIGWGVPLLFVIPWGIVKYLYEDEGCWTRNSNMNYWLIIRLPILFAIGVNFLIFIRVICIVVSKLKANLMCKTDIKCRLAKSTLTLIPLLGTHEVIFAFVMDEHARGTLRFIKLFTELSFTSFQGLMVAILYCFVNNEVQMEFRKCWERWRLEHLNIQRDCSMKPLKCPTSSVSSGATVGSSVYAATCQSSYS

[1] = mouse plasma degradation assay (Methods MP1-MP3); format: in vitro ADME
Method: The oligomer was then diluted 1/50 with a solution of plasma/PBS pH 7.4 (1/1) to afford a final concentration of 5μM and incubated at 37°C. […] (t = 0 min was determined using the reaction without plasma). The samples were frozen at -80°C before analysis. […] The supernatant was analyzed by LC-MS. The time course of oligomer degradation was determined by integrating the area of the peak in the extracted ion chromatogram. […] The oligomer was then diluted 1/50 with a solution of plasma/PBS pH 7.4 (1/1) to afford a final concentration of 5μM and incubated at 37°C. […] The oligomer was then diluted 1/50 with a solution of plasma/PBS pH 7.4 (1/1) to afford a final concentration of 5μM and incubated at 37°C. […] Animals. […] A standard chow diet (RM1 (E) 801492, SDS) and tap water were provided ad libitum. All animal protocols done by Physiogenex S.A.S were reviewed and approved by the local (Comité […] national ([…]

[2] = mouse plasma diluted 1/1 with PBS, mouse plasma/PBS pH 7.4 (1/1), 5 µM, 37 °C, acetonitrile quench, LC-MS extracted ion chromatogram, MP1 for 2-8, MP2 for 9-11, MP3 for 12-14, mean, n = 3, read-out: Mouse plasma t1/2 (converted)

Row | SMILES | EC50 (GLP-1R) | Potency (%), percentage of potency compared to GLP-1-NH2 (GLP-1R) | loss in potency relative to 3 (fold) (mouse GLP-1 receptor) | Potency (%), Table S1 (mouse GLP-1 receptor) | EC50 (mouse GLP-1 receptor) | half-life at 5 µM [1, 2] | half-life at 5 µM ([1]; mouse, plasma, pH 7.4)
1 | CC[C@H](C)[C@H](NC(=O)[C@H](Cc1ccccc1)NC(=O)[C@H](CCC(=O)O)NC(=O)[C@H](CCCCN)NC(=O)[C@H](C)NC(=O)[C@H](C)NC(=O)[C@H](CCC(N)=O)NC(=O)CNC(=O)[C@H](CCC(=O)O)NC(=O)[C@H](CC(C)C)NC(=O)[C@H](Cc1ccc(O)cc1)NC(=O)[C@H](CO)NC(=O)[C@H](CO)NC(=O)[C@@H](NC(=O)[C@H](CC(=O)O)NC(=O)[C@H](CO)NC(=O)[C@@H](NC(=O)[C@H](Cc1ccccc1)NC(=O)[C@@H](NC(=O)CNC(=O)[C@H](CCC(=O)O)NC(=O)NC(C)CNC(=O)[C@@H](N)Cc1c[nH]cn1)[C@@H](C)O)[C@@H](C)O)C(C)C)C(=O)N[C@@H](C)C(=O)N[C@@H](Cc1c[nH]c2ccccc12)C(=O)N[C@@H](CC(C)C)C(=O)N[C@H](C(=O)N[C@@H](CCCCN)C(=O)NCC(=O)N[C@@H](CCCNC(=N)N)C(=O)NCC(N)=O)C(C)C (some centres unmarked) [compound 6] | 0.012 nM | 25% | 24 fold | 3% | 3.4 nM | 22.2 min | –
2 | CC[C@H](C)[C@H](NC(=O)[C@H](Cc1ccccc1)NC(=O)[C@H](CCC(=O)O)NC(=O)[C@H](CCCCN)NC(=O)[C@H](C)NC(=O)[C@H](C)NC(=O)[C@H](CCC(N)=O)NC(=O)CNC(=O)[C@H](CCC(=O)O)NC(=O)[C@H](CC(C)C)NC(=O)[C@H](Cc1ccc(O)cc1)NC(=O)[C@H](CO)NC(=O)[C@H](CO)NC(=O)[C@@H](NC(=O)[C@H](CC(=O)O)NC(=O)[C@H](CO)NC(=O)[C@@H](NC(=O)[C@H](Cc1ccccc1)NC(=O)[C@@H](NC(=O)CNC(=O)[C@H](CCC(=O)O)NC(=O)OC[C@H](C)NC(=O)[C@@H](N)Cc1c[nH]cn1)[C@@H](C)O)[C@@H](C)O)C(C)C)C(=O)N[C@@H](C)C(=O)N[C@@H](Cc1c[nH]c2ccccc12)C(=O)N[C@@H](CC(C)C)C(=O)N[C@H](C(=O)N[C@@H](CCCCN)C(=O)NCC(=O)N[C@@H](CCCNC(=N)N)C(=O)NCC(N)=O)C(C)C [compound 5] | – | – | – | 13% | 0.8 nM | 12.6 min | –
3 | CC[C@H](C)[C@H](NC(=O)[C@H](Cc1ccccc1)NC(=O)[C@H](CCC(=O)O)NC(=O)[C@H](CCCCN)NC(=O)[C@H](C)NC(=O)[C@H](C)NC(=O)[C@H](CCC(N)=O)NC(=O)CNC(=O)[C@H](CCC(=O)O)NC(=O)[C@H](CC(C)C)NC(=O)[C@H](Cc1ccc(O)cc1)NC(=O)[C@H](CO)NC(=O)[C@H](CO)NC(=O)[C@@H](NC(=O)[C@H](CC(=O)O)NC(=O)[C@H](CO)NC(=O)[C@@H](NC(=O)[C@H](Cc1ccccc1)NC(=O)[C@@H](NC(=O)CNC(=O)[C@H](CCC(=O)O)NC(=O)[C@H](C)NC(=O)[C@@H](N)Cc1cnc[nH]1)[C@@H](C)O)[C@@H](C)O)C(C)C)C(=O)N[C@@H](C)C(=O)N[C@@H](Cc1c[nH]c2ccccc12)C(=O)N[C@@H](CC(C)C)C(=O)N[C@H](C(=O)N[C@@H](CCCCN)C(=O)NCC(=O)N[C@@H](CCCNC(=N)N)C(=O)NCC(N)=O)C(C)C [compound 2, GLP-1-NH2, reference compound] | – | – | – | – | – | – | 8.4 min
4 | CC[C@H](C)[C@H](NC(=O)[C@H](Cc1ccccc1)NC(=O)[C@H](CCC(=O)O)NC(=O)[C@H](CCCCN)NC(=O)[C@H](C)NC(=O)[C@H](C)NC(=O)[C@H](CCC(N)=O)NC(=O)CNC(=O)[C@H](CCC(=O)O)NC(=O)[C@H](CC(C)C)NC(=O)[C@H](Cc1ccc(O)cc1)NC(=O)[C@H](CO)NC(=O)[C@H](CO)NC(=O)[C@@H](NC(=O)[C@H](CC(=O)O)NC(=O)[C@H](CO)NC(=O)[C@@H](NC(=O)[C@H](Cc1ccccc1)NC(=O)[C@@H](NC(=O)CNC(=O)[C@H](CCC(=O)O)NC(=O)CC[C@H](C)NC(=O)[C@@H](N)Cc1c[nH]cn1)[C@@H](C)O)[C@@H](C)O)C(C)C)C(=O)N[C@@H](C)C(=O)N[C@@H](Cc1c[nH]c2ccccc12)C(=O)N[C@@H](CC(C)C)C(=O)N[C@H](C(=O)N[C@@H](CCCCN)C(=O)NCC(=O)N[C@@H](CCCNC(=N)N)C(=O)NCC(N)=O)C(C)C [compound 4] | – | – | – | – | – | 13.8 min | –
5 | CC[C@H](C)[C@H](NC(=O)[C@H](Cc1ccccc1)NC(=O)[C@H](CCC(=O)O)NC(=O)[C@H](CCCCN)NC(=O)[C@H](C)NC(=O)[C@H](C)NC(=O)[C@H](CCC(N)=O)NC(=O)CNC(=O)[C@H](CCC(=O)O)NC(=O)[C@H](CC(C)C)NC(=O)[C@H](Cc1ccc(O)cc1)NC(=O)[C@H](CO)NC(=O)[C@H](CO)NC(=O)[C@@H](NC(=O)[C@H](CC(=O)O)NC(=O)[C@H](CO)NC(=O)[C@@H](NC(=O)[C@H](Cc1ccccc1)NC(=O)[C@@H](NC(=O)CNC(=O)[C@H](CCC(=O)O)NC(=O)NCCNC(=O)[C@@H](N)Cc1c[nH]cn1)[C@@H](C)O)[C@@H](C)O)C(C)C)C(=O)N[C@@H](C)C(=O)N[C@@H](Cc1c[nH]c2ccccc12)C(=O)N[C@@H](CC(C)C)C(=O)N[C@H](C(=O)N[C@@H](CCCCN)C(=O)NCC(=O)N[C@@H](CCCNC(=N)N)C(=O)NCC(N)=O)C(C)C [compound 7] | 0.0053 nM | 59% | 5 fold | 13% | 0.8 nM | 13.2 min | –
6 | CC[C@H](C)[C@H](NC(=O)[C@H](Cc1ccccc1)NC(=O)[C@H](CCC(=O)O)NC(=O)[C@H](CCCCN)NC(=O)[C@H](C)NC(=O)[C@H](C)NC(=O)[C@H](CCC(N)=O)NC(=O)CNC(=O)[C@H](CCC(=O)O)NC(=O)[C@H](CC(C)C)NC(=O)[C@H](Cc1ccc(O)cc1)NC(=O)[C@H](CO)NC(=O)[C@H](CO)NC(=O)[C@@H](NC(=O)[C@H](CC(=O)O)NC(=O)[C@H](CO)NC(=O)[C@@H](NC(=O)[C@H](Cc1ccccc1)NC(=O)[C@@H](NC(=O)CNC(=O)[C@H](CCC(=O)O)NC(=O)NC[C@@H](NC(=O)[C@@H](N)Cc1c[nH]cn1)C(C)C)[C@@H](C)O)[C@@H](C)O)C(C)C)C(=O)N[C@@H](C)C(=O)N[C@@H](Cc1c[nH]c2ccccc12)C(=O)N[C@@H](CC(C)C)C(=O)N[C@H](C(=O)N[C@@H](CCCCN)C(=O)NCC(=O)N[C@@H](CCCNC(=N)N)C(=O)NCC(N)=O)C(C)C [compound 8] | 2.12 nM | – | > 1000 fold | < 0.01% | > 10000 nM | 18 min | –

Results, then the compound that gave them:

Row | EC50 (GLP-1R) | Potency (%), percentage of potency compared to GLP-1-NH2 (GLP-1R) | loss in potency relative to 3 (fold) (mouse GLP-1 receptor) | Potency (%), Table S1 (mouse GLP-1 receptor) | EC50 (mouse GLP-1 receptor) | half-life at 5 µM [1, 2] | half-life at 5 µM ([1]; mouse, plasma, pH 7.4) | SMILES
7 | – | – | – | 3% | 3.3 nM | – | – | CC[C@H](C)[C@H](NC(=O)[C@H](Cc1ccccc1)NC(=O)[C@H](CCC(=O)O)NC(=O)[C@H](CCCCN)NC(=O)[C@H](C)NC(=O)[C@H](C)NC(=O)[C@H](CCC(N)=O)NC(=O)CNC(=O)[C@H](CCC(=O)O)NC(=O)[C@H](CC(C)C)NC(=O)[C@H](Cc1ccc(O)cc1)NC(=O)[C@H](CO)NC(=O)[C@H](CO)NC(=O)[C@@H](NC(=O)[C@H](CC(=O)O)NC(=O)[C@H](CO)NC(=O)[C@@H](NC(=O)[C@H](Cc1ccccc1)NC(=O)[C@@H](NC(=O)CNC(=O)[C@H](CCC(=O)O)NC(=O)NC[C@@H](NC(=O)[C@@H](N)Cc1c[nH]cn1)[C@@H](C)O)[C@@H](C)O)[C@@H](C)O)C(C)C)C(=O)N[C@@H](C)C(=O)N[C@@H](Cc1c[nH]c2ccccc12)C(=O)N[C@@H](CC(C)C)C(=O)N[C@H](C(=O)N[C@@H](CCCCN)C(=O)NCC(=O)N[C@@H](CCCNC(=N)N)C(=O)NCC(N)=O)C(C)C [S10]
8 | – | – | – | 0% | 65 nM | – | – | CC[C@H](C)[C@H](NC(=O)[C@H](Cc1ccccc1)NC(=O)[C@H](CCC(=O)O)NC(=O)[C@H](CCCCN)NC(=O)[C@H](C)NC(=O)[C@H](C)NC(=O)[C@H](CCC(N)=O)NC(=O)CNC(=O)[C@H](CCC(=O)O)NC(=O)[C@H](CC(C)C)NC(=O)[C@H](Cc1ccc(O)cc1)NC(=O)[C@H](CO)NC(=O)[C@H](CO)NC(=O)[C@@H](NC(=O)[C@H](CC(=O)O)NC(=O)[C@H](CO)NC(=O)[C@@H](NC(=O)[C@H](Cc1ccccc1)NC(=O)[C@@H](NC(=O)CNC(=O)[C@H](CCC(=O)O)NC(=O)NC[C@H](CS)NC(=O)[C@@H](N)Cc1c[nH]cn1)[C@@H](C)O)[C@@H](C)O)C(C)C)C(=O)N[C@@H](C)C(=O)N[C@@H](Cc1c[nH]c2ccccc12)C(=O)N[C@@H](CC(C)C)C(=O)N[C@H](C(=O)N[C@@H](CCCCN)C(=O)NCC(=O)N[C@@H](CCCNC(=N)N)C(=O)NCC(N)=O)C(C)C [S3]
